Reference: ChEMBL document CHEMBL4376804, “Review of Transient Receptor Potential Canonical (TRPC5) Channel Modulators and Diseases” (J Med Chem, 2019)
Each block holds one molecule with its values, some of them ahead of it.

Tests used:
[1] = target: TRPC6; assay: Inhibition of TRPC6 expressed in HEK293 cells coexpressing M5 receptor assessed as reduction in TRPC6-mediated calcium influx by fluorescence method
[2] = target: ORAI1/STIM1 (Rattus norvegicus, UniProt P84903+Q5M848); assay: Inhibition of ORAI/STIM1 in thapsigargin treated rat RBL2H3 cells assessed as reduction in store-operated calcium entry after 5 mins by fura-2-AM dye based assay; format: cell-based
Sequence of ORAI1/STIM1 (P84903 whole entry): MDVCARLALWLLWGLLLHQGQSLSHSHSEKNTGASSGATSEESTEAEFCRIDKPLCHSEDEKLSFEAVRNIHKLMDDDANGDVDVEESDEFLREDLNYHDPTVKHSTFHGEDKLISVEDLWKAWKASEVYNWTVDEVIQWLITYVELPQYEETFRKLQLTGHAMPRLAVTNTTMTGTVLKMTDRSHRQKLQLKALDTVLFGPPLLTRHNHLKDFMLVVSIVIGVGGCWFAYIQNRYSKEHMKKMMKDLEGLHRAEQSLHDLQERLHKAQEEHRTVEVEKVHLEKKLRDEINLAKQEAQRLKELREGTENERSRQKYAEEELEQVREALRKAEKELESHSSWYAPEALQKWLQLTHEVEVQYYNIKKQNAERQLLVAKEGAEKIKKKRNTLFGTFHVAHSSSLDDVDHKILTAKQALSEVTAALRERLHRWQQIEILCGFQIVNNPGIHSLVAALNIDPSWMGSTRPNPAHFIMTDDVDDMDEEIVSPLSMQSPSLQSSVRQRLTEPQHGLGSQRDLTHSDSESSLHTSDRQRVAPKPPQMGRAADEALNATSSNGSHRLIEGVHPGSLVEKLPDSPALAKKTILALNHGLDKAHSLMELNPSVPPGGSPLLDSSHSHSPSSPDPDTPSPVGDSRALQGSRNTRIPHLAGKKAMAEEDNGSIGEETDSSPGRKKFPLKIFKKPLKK
Sequence of ORAI1/STIM1 (Q5M848 whole entry): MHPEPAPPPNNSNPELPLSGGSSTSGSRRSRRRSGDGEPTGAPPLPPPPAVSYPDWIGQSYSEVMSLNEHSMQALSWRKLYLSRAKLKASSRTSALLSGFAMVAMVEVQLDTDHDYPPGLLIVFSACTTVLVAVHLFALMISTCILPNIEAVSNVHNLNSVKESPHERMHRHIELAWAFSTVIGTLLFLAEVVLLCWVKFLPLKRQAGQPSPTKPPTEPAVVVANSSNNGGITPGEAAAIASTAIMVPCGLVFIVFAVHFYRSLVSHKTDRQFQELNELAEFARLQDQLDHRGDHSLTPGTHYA

[3] = Selectivity ratio of ORAI/STIM1 in thapsigargin treated rat RBL2H3 cells to YFP-tagged TRPC3 (unknown origin) expressed in HEK293 cells; format: cell-based
[4] = target: T1, Short transient receptor potential channel 3 (Homo sapiens, UniProt Q13507); assay: Inhibition of YFP-tagged TRPC3 (unknown origin) expressed in HEK293 cells assessed as reduction carbhocol-induced receptor operated Calcium influx after 5 mins by fura-2-AM dye based assay; format: cell-based
T1 sequence (Q13507 whole entry): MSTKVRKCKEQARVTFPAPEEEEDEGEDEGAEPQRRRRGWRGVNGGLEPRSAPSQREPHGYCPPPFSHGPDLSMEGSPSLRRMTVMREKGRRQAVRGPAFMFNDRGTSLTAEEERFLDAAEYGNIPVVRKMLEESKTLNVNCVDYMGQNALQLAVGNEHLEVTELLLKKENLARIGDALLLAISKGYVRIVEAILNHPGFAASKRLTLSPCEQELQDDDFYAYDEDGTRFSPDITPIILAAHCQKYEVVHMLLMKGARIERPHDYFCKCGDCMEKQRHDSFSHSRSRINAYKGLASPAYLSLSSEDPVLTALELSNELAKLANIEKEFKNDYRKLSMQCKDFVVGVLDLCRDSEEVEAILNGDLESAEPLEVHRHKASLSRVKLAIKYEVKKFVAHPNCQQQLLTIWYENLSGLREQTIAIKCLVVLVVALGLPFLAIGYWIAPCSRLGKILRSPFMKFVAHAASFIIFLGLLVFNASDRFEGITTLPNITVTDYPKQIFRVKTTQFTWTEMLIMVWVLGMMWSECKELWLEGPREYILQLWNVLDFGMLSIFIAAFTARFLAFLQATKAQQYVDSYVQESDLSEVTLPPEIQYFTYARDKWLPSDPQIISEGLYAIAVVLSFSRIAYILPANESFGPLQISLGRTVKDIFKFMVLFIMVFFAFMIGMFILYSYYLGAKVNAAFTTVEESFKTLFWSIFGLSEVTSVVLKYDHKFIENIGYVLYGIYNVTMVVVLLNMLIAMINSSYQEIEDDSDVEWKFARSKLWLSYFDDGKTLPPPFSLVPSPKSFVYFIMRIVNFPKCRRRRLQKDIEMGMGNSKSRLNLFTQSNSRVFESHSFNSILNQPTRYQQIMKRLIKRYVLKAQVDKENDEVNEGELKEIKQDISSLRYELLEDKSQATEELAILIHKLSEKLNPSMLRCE

[5] = target: T2, Short transient receptor potential channel 6 (Homo sapiens, UniProt Q9Y210); assay: Inhibition of human TRPC6 expressed in HEK293 cells assessed as reduction in OAG-induced calcium influx preincubated for 2 mins followed by OAG stimulation by fluo-4/AM dye based FLIPR assay; format: cell-based
T2 sequence (Q9Y210 whole entry): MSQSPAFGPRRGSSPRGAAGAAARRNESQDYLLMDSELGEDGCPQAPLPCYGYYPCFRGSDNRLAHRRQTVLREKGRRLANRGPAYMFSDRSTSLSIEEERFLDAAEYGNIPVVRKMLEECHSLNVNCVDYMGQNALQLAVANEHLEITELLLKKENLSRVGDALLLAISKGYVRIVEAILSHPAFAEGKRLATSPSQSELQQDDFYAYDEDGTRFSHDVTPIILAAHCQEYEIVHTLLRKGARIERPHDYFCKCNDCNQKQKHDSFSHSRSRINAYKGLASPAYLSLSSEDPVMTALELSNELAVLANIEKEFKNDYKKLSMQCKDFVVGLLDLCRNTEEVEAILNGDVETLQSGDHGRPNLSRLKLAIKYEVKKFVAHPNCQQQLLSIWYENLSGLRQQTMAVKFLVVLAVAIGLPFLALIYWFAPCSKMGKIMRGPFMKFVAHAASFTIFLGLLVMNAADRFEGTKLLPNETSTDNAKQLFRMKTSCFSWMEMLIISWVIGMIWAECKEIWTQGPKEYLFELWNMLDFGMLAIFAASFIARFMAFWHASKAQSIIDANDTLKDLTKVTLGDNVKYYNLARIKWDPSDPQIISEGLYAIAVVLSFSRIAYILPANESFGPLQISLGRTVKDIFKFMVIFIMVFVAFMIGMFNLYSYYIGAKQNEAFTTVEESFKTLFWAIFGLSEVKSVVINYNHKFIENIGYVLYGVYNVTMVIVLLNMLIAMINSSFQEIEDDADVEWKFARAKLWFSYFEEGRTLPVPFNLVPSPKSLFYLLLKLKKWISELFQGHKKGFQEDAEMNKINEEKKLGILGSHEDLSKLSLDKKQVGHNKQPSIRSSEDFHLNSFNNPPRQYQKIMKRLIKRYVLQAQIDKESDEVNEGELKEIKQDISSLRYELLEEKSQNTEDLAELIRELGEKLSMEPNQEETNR

[6] = target: T3, Short transient receptor potential channel 6 (Mus musculus, UniProt Q61143); assay: Inhibition of mouse TRPC6 expressed in HEK293 cells co-expressing M5 receptor assessed as reduction in carbachol-induced membrane potential by FMP-2 dye based assay; format: cell-based
T3 sequence (Q61143 whole entry): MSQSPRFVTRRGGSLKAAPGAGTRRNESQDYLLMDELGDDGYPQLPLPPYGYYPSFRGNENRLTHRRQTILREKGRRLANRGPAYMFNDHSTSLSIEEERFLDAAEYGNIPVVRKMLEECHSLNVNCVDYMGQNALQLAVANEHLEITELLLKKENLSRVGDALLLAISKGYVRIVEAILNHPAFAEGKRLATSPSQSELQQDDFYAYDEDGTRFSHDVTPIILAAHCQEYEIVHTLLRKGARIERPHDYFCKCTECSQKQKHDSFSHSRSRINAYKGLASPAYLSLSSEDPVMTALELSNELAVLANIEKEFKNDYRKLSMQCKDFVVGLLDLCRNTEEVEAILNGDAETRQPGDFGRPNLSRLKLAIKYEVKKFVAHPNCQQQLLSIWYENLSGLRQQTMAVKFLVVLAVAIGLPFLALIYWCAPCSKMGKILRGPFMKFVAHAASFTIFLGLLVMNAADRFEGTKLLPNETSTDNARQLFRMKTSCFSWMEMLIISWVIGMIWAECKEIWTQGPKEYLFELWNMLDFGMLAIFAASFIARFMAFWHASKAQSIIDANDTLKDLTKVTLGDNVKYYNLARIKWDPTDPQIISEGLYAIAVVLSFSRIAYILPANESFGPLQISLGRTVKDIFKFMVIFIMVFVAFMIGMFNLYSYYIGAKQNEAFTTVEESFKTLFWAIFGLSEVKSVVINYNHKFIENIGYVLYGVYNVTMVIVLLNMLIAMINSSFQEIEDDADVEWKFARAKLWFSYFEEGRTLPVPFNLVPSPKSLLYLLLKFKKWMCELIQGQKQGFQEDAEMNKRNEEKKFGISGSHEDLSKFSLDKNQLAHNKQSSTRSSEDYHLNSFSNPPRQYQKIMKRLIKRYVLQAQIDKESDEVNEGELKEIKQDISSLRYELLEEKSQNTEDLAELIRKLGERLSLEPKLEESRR

[7] = Drug concentration in C57BL/6 mouse brain at 10 mg/kg, ip after 2 hrs by UPLC method; format: ADME, organism-based; conditions: read-out: Drug uptake
[8] = target: T1, Short transient receptor potential channel 3; assay: Inhibition of human TRPC3 expressed in HEK293 cells assessed as reduction in carbachol-induced membrane potential by FMP-2 dye based assay; format: cell-based
[9] = Drug concentration in C57BL/6 mouse cerebrospinal fluid at 10 mg/kg, ip after 2 hrs by UPLC method; format: ADME, organism-based; conditions: read-out: Drug uptake
[10] = Inhibition of human TRPC1/mouse TRPC4 beta expressed in HEK293 cells co-expressing M2 receptor assessed as reduction in […] membrane potential by FMP-2 dye based assay; format: cell-based
[11] = Drug concentration in C57BL/6 mouse serum at 10 mg/kg, ip after 2 hrs by UPLC method; format: ADME, organism-based; conditions: read-out: Drug uptake
[12] = target: TRPC4/TRPC1 (Homo sapiens, UniProt P48995+Q9UBN4); assay: Antagonist activity at TRPC4/TRPC1 in human A498 cells assessed as reduction in englerin A-induced calcium entry preincubated for 30 mins followed by englerin A addition by fluorescence method; format: cell-based
Sequence of TRPC4/TRPC1 (Q9UBN4 whole entry): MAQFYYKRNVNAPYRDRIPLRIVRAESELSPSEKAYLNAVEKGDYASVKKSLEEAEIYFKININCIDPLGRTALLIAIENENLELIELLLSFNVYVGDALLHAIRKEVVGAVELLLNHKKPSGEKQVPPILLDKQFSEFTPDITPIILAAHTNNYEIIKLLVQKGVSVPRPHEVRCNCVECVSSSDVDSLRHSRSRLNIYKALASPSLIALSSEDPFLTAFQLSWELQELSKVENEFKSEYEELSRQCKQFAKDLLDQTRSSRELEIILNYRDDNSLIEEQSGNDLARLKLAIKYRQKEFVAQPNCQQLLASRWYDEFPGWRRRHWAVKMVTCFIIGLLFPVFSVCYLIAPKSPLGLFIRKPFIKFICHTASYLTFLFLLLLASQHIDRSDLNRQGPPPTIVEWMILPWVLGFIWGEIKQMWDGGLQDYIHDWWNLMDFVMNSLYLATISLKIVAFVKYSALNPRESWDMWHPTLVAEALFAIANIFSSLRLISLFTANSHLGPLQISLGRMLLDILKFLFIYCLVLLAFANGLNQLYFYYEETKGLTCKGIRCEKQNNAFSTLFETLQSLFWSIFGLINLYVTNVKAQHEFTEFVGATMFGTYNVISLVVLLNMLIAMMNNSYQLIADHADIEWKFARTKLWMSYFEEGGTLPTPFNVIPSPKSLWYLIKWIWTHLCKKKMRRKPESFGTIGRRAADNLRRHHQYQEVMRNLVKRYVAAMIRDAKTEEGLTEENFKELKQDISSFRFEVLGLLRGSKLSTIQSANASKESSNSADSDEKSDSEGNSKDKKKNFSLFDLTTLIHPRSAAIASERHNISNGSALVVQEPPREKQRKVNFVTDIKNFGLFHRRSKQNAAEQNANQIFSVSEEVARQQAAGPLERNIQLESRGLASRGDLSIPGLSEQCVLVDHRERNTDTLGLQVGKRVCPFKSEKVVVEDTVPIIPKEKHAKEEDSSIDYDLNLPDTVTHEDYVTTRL
Sequence of TRPC4/TRPC1 (P48995 whole entry): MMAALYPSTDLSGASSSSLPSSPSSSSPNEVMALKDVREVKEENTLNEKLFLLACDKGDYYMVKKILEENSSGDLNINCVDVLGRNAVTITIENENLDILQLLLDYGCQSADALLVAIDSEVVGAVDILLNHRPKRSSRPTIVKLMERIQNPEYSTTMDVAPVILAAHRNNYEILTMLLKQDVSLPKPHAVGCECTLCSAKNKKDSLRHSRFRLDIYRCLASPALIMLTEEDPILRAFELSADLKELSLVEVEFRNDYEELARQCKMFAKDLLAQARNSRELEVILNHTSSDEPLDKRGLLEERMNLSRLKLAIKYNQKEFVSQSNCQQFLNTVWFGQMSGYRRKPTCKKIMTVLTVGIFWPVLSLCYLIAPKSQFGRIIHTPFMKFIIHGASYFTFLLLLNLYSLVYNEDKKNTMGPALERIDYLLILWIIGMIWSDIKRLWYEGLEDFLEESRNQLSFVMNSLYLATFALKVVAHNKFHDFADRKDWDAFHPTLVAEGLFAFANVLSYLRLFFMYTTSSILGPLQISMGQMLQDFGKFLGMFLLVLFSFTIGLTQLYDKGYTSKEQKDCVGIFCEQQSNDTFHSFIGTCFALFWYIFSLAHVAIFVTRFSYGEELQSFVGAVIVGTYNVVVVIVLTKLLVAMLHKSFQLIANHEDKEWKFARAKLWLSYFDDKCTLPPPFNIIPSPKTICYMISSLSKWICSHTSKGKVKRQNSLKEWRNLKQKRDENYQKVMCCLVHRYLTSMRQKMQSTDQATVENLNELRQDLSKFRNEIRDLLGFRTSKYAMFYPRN

[13] = species on record: Mus musculus; assay: Selectivity ratio of mouse TRPC4 beta expressed in HEK293 cells co-expressing mu-opioid receptor to IC50 for mouse TRPC6 expressed in HEK293 cells; format: cell-based
[14] = target: Acetylcholinesterase (Homo sapiens, UniProt P22303); assay: Inhibition of human recombinant acetylcholinesterase expressed in HEK-293 cells using AMTch as substrate after 30 mins by spectrophotometric method
Sequence of Acetylcholinesterase (P22303 whole entry): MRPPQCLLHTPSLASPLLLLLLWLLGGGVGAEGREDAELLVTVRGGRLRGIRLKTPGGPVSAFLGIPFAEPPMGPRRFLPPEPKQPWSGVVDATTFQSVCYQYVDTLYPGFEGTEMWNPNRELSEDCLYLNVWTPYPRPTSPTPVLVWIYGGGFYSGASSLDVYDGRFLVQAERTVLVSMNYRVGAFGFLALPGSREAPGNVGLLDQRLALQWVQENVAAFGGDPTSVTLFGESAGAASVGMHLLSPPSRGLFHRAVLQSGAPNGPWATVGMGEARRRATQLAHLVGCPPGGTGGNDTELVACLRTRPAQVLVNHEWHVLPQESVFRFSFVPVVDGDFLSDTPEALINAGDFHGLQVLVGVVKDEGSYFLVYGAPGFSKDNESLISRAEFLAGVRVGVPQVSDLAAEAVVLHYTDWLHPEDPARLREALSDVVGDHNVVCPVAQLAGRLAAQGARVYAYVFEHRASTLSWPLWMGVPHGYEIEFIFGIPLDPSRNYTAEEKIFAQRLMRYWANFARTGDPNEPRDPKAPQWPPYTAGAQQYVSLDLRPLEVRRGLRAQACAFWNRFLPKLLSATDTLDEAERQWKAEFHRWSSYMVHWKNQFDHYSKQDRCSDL

[15] = target: T3, Short transient receptor potential channel 6; assay: Inhibition of HA-tagged mouse TRPC6 expressed in HEK293 cells assessed as reduction in acetylcholine-induced membrane potential by FLIPR membrane potential dye based assay; format: cell-based
[16] = target: T4, Short transient receptor potential channel 4 (Mus musculus, UniProt Q9QUQ5); assay: Inhibition of mouse TRPC4 beta expressed in HEK293 cells co-expressing mu-opioid receptor assessed as reduction in DAMGO-induced intracellular calcium level in presence of mu-opioid receptor agonist DAMGO by Fluo-4AM dye based fluorescence assay; format: cell-based
T4 sequence (Q9QUQ5 whole entry): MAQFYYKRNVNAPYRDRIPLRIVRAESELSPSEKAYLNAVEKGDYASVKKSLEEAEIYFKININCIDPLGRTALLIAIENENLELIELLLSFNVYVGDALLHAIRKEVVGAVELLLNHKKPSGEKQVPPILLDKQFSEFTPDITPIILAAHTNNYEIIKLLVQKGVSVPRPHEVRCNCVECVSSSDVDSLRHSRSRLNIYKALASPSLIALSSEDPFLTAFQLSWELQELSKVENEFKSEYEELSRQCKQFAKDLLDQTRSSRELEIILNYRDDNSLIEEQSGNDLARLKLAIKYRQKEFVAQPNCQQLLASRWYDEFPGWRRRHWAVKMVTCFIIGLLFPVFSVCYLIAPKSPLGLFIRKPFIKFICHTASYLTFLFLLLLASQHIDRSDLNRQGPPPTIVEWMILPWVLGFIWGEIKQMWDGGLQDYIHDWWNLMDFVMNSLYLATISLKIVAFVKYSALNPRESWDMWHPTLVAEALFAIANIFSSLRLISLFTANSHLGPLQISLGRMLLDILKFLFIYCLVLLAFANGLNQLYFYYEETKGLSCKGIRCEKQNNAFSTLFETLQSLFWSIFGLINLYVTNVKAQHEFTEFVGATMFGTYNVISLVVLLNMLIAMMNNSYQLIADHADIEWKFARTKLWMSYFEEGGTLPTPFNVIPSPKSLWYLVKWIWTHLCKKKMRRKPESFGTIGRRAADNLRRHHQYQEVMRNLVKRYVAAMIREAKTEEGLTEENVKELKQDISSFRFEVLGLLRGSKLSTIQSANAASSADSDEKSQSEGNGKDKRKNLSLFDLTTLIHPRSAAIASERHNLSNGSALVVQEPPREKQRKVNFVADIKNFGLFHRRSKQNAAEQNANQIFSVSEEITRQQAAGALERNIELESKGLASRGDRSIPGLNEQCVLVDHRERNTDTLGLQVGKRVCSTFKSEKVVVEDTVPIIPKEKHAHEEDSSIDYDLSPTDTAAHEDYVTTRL

IC50 [1]: 8.4 µM
SMILES: Cc1nn2c(O)cc(C3CCN(C(=O)OC(C)(C)C)CC3)nc2c1-c1ccc(F)cc1

IC50 [2]: 0.49 µM
IC50 [4]: 18.5 µM
SMILES: O=C(Nc1ccc(-n2nc(C(F)(F)F)cc2C(F)(F)F)cc1)c1ccncc1F
Ratio IC50 [3]: 37

IC50 [6]: 59.6 µM
concentration at 2 h [7]: 1100 ng/g
IC50 [8]: 48.6 µM
concentration at 2 h [9]: 335 ng/mL
IC50 [10]: 8.3 µM
concentration at 2 h [11]: 2260 ng/mL
SMILES: CCCCNc1nc2ccccc2[nH]1

The remaining lines, values behind:

SMILES: C=C[C@](C)(O)CC[C@H]1C(=C)C[C@H](OC(N)=O)[C@H]2C(C)(C)CCC[C@]12C
IC50 [5]: 0.17 µM

SMILES: C=C[C@@](C)(CC[C@H]1C(=C)C[C@H](OC(N)=O)[C@H]2C(C)(C)CCC[C@]12C)OC(C)=O
IC50 [5]: 0.25 µM

SMILES: CC(C)[C@]12C[C@@H](OCCO)[C@](C)(O1)[C@@H]1CC[C@@H](C)[C@H]1[C@@H]2OC(=O)/C=C/c1ccccc1
IC50 [12]: 0.062 µM

SMILES: Cc1cc(N2CCCCC2)nc2ccccc12
Ratio IC50 [13]: 19
IC50 [14]: 0.84 µM
IC50 [15]: 17.9 µM
IC50 [16]: 0.96 µM
